Assay results: article PMC8086025, “A benzopyran with antiarrhythmic activity is an inhibitor of Kir3.1-containing potassium channels” (The Journal of Biological Chemistry, 2021)
Several values for one entry are separate records, joined by “and”; a condition that tells them apart may be missing. Equal values may be shown once. Entries after “also recorded” stand apart in the source; their conditions may differ.

Key:
Histamine H2 = target: T1, Histamine H2 (Homo sapiens, UniProt P25021); assay: Radioligand binding, [125I]APT; conditions: read-out: % Specific Binding at 10 µM
T1 construct: expressed in transfected cells; host or cells: CHO cells
T1 sequence (P25021 whole entry): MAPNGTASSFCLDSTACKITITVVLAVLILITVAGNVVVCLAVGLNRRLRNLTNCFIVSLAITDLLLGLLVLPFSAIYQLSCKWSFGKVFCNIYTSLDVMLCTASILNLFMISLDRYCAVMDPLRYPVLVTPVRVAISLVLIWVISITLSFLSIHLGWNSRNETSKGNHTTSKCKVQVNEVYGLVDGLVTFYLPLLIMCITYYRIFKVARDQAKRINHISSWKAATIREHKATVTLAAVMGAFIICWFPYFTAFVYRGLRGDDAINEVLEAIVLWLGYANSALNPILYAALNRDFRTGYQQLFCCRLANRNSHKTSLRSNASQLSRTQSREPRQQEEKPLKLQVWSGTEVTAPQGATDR

wild-type Kir3.4 channel = target: T2, wild-type Kir3.4 channel (Homo sapiens, UniProt P48544); assay: TEVC in Xenopus oocytes, wild-type Kir3.4; assay type: cell-based; conditions: 1 μM
T2 construct: expressed in transfected cells; host or cells: Xenopus laevis oocytes (cRNA injection)
Protocol: (§1) X. laevis oocytes were isolated and microinjected as previously described ([6]). Human Kir3.1, mouse Kir3.2, and human Kir3.4 DNA constructs were used for electrophysiology experiments. All cRNA constructs were injected in the amount of 2 ng per oocyte. Injected oocytes were incubated for 2 to 3 days at 18 °C to allow for expression. Whole-cell oocyte currents were then measured using a GeneClamp 500 amplifier (Axon Instruments). Microelectrodes had resistances of 0.5 to 1 megohm using a 3M KCl solution in 1.4% agarose. Oocytes were perfused with a low K^+ (LK) solution ND96 (2 mM KCl, 96 mM NaCl, 1 mM MgCl2, 1.8 mM CaCl2, 5 mM HEPES-Na) to establish a baseline for the recordings. Basal current was measured in a high potassium (HK) solution ND96K (96 mM KCl, 10 mM HEPES-K, 1 mM MgCl2, 1.8 mM CaCl2). To block the current, the oocyte chamber was perfused with 4 mM BaCl2 in ND96K. Only the Barium-sensitive current was used for statistical analysis. To measure the inhibitory activity of the channels, 1 μM BP-G1 in ND96K (HK) was used. Typically, oocytes were held at 0 mV (EK) and the current was monitored constantly using a ramp protocol with a command potential from −80 to +80 mV. Current amplitude was measured at the end of a 1 s sweep. All currents were analyzed when they reached steady state. Error bars in the figures represent SD (N > 4).

[1] = Plasma protein binding, dog; assay type: in vitro ADME; conditions: read-out: Dog PPB (converted)
[2] = Plasma protein binding, human; assay type: in vitro ADME; conditions: read-out: Human PPB (converted)
NaV1.2 and NaVβ1 = target: T3, NaV1.2 and NaVβ1 (Rattus norvegicus, UniProt P04775); assay: NaV1.2 currents in Xenopus oocytes; assay type: cell-based
T3 construct: expressed in transfected cells; host or cells: Xenopus oocytes
T3 sequence (P04775 whole entry): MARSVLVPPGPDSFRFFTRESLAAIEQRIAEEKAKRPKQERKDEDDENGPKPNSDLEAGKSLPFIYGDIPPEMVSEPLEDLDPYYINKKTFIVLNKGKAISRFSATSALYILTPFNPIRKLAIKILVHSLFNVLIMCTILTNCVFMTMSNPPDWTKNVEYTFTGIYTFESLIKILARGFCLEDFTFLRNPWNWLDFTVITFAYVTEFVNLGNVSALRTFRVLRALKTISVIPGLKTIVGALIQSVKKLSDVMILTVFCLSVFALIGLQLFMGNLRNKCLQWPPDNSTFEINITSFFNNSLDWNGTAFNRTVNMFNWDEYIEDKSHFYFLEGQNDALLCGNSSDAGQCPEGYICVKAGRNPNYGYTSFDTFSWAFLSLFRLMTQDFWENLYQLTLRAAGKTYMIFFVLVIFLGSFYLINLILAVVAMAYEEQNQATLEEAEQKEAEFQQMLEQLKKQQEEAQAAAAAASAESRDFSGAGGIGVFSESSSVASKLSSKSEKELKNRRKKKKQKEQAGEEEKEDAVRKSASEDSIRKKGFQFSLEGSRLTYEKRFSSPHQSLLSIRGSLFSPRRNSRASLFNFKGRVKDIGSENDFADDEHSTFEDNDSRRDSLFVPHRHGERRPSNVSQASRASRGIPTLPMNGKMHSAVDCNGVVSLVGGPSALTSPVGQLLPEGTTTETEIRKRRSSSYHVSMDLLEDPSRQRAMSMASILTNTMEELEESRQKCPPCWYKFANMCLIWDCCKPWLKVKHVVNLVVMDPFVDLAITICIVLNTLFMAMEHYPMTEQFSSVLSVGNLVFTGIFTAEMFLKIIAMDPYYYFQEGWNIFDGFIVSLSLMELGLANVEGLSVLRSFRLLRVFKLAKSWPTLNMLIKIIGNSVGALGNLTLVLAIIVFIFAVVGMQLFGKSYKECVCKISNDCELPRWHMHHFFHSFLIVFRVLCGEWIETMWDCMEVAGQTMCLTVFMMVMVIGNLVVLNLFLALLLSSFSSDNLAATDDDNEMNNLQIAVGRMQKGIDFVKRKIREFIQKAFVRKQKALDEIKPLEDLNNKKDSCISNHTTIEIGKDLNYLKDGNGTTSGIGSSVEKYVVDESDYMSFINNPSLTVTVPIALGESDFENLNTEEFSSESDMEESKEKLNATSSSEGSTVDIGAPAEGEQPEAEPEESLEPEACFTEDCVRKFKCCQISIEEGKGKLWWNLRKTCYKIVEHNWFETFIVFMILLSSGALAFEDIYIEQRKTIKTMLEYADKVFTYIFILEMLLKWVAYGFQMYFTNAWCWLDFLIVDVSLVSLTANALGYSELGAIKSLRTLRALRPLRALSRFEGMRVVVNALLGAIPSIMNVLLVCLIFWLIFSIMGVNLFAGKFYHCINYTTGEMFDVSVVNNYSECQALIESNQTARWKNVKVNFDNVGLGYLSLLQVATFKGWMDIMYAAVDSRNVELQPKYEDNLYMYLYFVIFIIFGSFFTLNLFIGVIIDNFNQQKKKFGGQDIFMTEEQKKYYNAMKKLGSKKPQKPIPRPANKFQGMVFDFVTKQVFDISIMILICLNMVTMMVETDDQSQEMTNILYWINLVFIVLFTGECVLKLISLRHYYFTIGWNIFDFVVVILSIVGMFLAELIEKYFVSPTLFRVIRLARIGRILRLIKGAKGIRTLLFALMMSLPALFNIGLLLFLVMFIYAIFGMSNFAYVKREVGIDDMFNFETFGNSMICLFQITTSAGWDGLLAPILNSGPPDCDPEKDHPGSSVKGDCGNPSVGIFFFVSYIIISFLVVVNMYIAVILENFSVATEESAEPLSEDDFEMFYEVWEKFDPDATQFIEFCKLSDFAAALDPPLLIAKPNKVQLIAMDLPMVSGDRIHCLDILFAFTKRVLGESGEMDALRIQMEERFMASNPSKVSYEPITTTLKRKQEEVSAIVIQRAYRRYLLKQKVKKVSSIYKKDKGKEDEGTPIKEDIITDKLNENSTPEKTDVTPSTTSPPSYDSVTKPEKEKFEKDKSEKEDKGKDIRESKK
T3 sequence (Q00954 19-218 partner): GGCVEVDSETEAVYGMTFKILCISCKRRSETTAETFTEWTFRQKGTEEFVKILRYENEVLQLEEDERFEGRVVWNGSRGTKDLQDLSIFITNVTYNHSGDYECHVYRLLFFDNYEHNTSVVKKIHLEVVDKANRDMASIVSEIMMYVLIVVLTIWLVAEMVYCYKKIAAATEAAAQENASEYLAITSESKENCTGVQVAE

Kir3.1/4 channel = target: T4, Kir3.1/4 channel (Homo sapiens, UniProt P48544+P48549); assay: TEVC in Xenopus oocytes, Kir3.1/4; assay type: cell-based; set-up: expressed in transfected cells; host or cells: Xenopus laevis oocytes (cRNA injection)
T4 sequence (P48549 1-501): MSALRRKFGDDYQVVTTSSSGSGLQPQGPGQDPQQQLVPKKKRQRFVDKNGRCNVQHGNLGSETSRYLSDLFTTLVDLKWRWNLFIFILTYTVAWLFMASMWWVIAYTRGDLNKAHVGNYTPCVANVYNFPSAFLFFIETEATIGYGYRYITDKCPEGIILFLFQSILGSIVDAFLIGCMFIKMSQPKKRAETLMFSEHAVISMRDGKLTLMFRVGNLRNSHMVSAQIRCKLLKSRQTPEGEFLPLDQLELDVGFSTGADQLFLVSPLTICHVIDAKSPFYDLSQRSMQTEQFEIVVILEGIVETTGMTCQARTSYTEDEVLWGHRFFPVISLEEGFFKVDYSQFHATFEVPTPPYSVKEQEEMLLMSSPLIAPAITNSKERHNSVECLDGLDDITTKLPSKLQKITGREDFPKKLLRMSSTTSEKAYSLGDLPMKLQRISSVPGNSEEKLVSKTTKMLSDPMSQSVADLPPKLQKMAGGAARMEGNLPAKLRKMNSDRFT
T4 sequence (P48544 1-419): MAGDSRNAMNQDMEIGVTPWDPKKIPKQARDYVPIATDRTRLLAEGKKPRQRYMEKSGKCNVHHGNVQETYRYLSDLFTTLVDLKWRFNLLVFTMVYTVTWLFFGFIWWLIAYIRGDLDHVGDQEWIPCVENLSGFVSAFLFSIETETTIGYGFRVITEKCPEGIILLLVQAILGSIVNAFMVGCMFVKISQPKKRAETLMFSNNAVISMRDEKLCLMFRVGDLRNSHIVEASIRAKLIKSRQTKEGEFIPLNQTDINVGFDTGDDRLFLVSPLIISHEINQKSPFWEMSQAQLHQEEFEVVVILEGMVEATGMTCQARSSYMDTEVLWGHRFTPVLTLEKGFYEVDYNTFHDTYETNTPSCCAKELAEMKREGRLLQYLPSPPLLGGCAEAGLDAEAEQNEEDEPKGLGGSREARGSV
Protocol: as §1

Ca = assay: Radioligand binding; conditions: listed as Benzopyran-G1
Kir2.1 = target: T5, Kir2.1 (Homo sapiens, UniProt P63252); assay: Cloned cardiac ion channel manual patch clamp, Kir2.1; assay type: cell-based; conditions: MPC (manual patch clamp)
T5 construct: host or cells: HEK293
T5 sequence (P63252 whole entry): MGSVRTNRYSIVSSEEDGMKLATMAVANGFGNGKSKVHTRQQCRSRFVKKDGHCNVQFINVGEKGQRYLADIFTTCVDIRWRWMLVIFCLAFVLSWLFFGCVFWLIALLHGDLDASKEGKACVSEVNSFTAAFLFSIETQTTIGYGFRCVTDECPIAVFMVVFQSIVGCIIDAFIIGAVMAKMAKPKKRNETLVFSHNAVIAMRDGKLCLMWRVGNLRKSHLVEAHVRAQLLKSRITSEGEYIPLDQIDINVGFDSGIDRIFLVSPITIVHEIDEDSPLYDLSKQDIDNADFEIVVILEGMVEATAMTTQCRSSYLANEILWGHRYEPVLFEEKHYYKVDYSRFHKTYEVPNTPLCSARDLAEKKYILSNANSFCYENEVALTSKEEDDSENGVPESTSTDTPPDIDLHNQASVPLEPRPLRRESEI

[3] = system: Kir2.1, Kir2.3, Kir3.1∗, Kir3.2∗, Kir3.4∗, Kir3.1∗/Kir3.2 and Kir3.1∗/Kir3.4; assay: TEVC in Xenopus oocytes, selectivity over other Kir channels; assay type: cell-based; conditions: 1 μM
[4] = target: T6, Kir3.4/4(S143F) with E147A in the Kir3.4(S143F) subunit (Homo sapiens, UniProt P48544, E147A/S143F); assay: TEVC in Xenopus oocytes, E147A mutant in the Kir3.4(S143F) subunit; assay type: cell-based; conditions: 1 μM
T6 construct: expressed in transfected cells; host or cells: Xenopus laevis oocytes (cRNA injection)
T6 sequence (P48544 whole entry S143F/E147A, one chain of several): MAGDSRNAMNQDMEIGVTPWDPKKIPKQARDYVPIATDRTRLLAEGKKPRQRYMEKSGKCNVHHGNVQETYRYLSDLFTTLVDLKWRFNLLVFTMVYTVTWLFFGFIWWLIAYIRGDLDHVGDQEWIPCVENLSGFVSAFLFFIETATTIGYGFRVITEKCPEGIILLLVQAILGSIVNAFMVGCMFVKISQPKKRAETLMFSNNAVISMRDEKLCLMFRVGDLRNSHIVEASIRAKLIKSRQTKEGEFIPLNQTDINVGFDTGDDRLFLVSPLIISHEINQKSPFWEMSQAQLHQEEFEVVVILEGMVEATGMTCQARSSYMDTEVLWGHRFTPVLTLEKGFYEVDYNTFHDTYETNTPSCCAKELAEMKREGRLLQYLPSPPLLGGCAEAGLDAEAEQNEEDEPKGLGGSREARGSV
Protocol: as §1

[5] = target: Kir3.4/4(N179D) channel mutant (Homo sapiens, UniProt P48544, N179D); assay type: cell-based; conditions: 1 μM, TEVC
Sequence of Kir3.4/4(N179D) channel mutant (P48544 whole entry N179D, one chain of several): as the sequence (P48544 whole entry S143F/E147A, one chain of several) above, with F143S, A147E, N179D counted along it

Kv1.7 = Kv1.7 (Homo sapiens, UniProt Q96RP8); assay: Cloned cardiac ion channel electrophysiology, Kv1.7; assay type: cell-based
Sequence of Kv1.7 (Q96RP8 whole entry): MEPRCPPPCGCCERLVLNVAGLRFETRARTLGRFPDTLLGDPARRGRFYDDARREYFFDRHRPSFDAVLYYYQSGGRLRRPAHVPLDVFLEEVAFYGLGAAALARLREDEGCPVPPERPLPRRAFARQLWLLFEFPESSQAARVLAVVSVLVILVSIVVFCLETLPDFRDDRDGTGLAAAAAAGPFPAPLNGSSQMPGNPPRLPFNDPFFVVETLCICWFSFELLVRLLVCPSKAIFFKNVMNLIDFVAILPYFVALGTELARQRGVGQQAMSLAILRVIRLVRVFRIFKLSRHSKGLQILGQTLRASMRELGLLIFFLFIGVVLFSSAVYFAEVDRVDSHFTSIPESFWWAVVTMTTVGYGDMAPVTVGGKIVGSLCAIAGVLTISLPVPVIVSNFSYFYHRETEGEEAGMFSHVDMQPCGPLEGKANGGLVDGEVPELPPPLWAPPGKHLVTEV
Protocol: Table S7-1. Table detailing composition (in mM) of external experimental assay solutions […]
%Inhibition = (1 − IIntervention/IControl) × 100
Equation 1 – Percentage Inhibition
Inhibition of current (or leak-subtracted current) was calculated from steady-state current recorded in the absence (IControl) and presence of test-article (IIntervention).
Equation 2 – Concentration-response curve
Concentration-response data were fitted with a sigmoidal function of the form above, where YMin and YMax represent maximum and minimum current inhibition which were constrained to 100 and 0 respectively and x is the Log[DRUG (M)] based on GraphPad Prism analysis. % inhibition was calculated as in Equation 1.
(also on this page, place not known: […] […] + −+= − HnxLogIC MinMax Min YYYInhibition )( 50101 )(% inhi bition Log[ DRUG analysis .) […]

[6] = target: T7, Kir3.4/4(S143F) channel mutant (Homo sapiens, UniProt P48544, S143F); assay: TEVC in Xenopus oocytes, Kir3.4/4(S143F); assay type: cell-based; conditions: read-out: IC50, inhibition of Kir3.4/4(S143F)
T7 construct: expressed in transfected cells; host or cells: Xenopus laevis oocytes (cRNA injection)
T7 sequence (P48544 whole entry S143F, one chain of several): as the sequence (P48544 whole entry S143F/E147A, one chain of several) above, with A147E counted along it

## Cc1cc(CO)nc2cc3c(cc12)OC(C)(C)[C@H](O)[C@H]3NCCc1ccccc1 [BP-G1, (3R,4S)-7-(hydroxymethyl)-2,2,9-trimethyl-4-(2-phenylethylamino)-3,4-dihydropyrano[2,3-g]quinolin-3-ol]
Histamine H2
  inhibition at 10 µM: 35.5%
wild-type Kir3.4 channel
  inhibition of wild-type Kir3.4: did not inhibit; also recorded: showed no block
[1]
  fraction unbound: 0.06
[2]
  fraction unbound: 0.03
NaV1.2 and NaVβ1; 10 µM
  block of TTX-sensitive NaV1.2 currents: did not block
NaV1.2 and NaVβ1; 10 μM BP-G1, vehicle -2.16 ± 0.36 μA, mean ± SD, N=10
  average NaV1.2 current: -2.17 μA
NaV1.2 and NaVβ1; Table S1
  IC50, NaV1.2: > 10000 nM
Kir3.1/4 channel; 1 μM, TEVC
  current block, wild-type Kir3.1/4: 75 to 80%
Kir3.1/4 channel; TEVC oocyte experiments, read-out: IC50, inhibition of Kir3.1/4
  IC50: 55 nM and 55.9 nM
Ca
  % Specific Binding at 10 µM: 42.600% and < 50%
Kir2.1
  IC50: > 10000 nM
[3]
  selectivity for Kir3.1-containing heteromers over other Kir channels: strong inhibitory selectivity
[4]
  block of Kir3.4/4(S143F) carrying E147A: abolished block
[5]
  inhibition of Kir3.4/4(N179D): did not inhibit
Kv1.7
  IC50: 7000 nM
[6]
  IC50: 62.1 nM
